Read-outs that look alike come from different tables or passages of the source. Non-standard residues stand in square brackets, D forms with d. No end group written: not given here.
Legend:
GPIb-vWf interaction = target: T1, GPIb-vWf interaction (Homo sapiens, UniProt P07359); assay: Flow cytometry inhibition of vWf binding to ristocetin-activated platelets in PRP; type: cell-based
T1 construct: Platelet rich plasma (PRP) was prepared from whole blood by centrifugation; endogenous in cells
Protocol: (§1) In order to prepare human platelets for testing, as approved by Canadian Blood Services' Ethics Board, samples of whole blood were drawn from healthy, consenting donors into 2.7-4.0 mL citrated tubes (BD, USA). Platelet rich plasma (PRP) was prepared from whole blood by centrifugation in a Beckman (CS-6R) bench-top centrifuge (r=203.57 mm, Beckman Coulter, USA) 164×g for 15 minutes. PRP from a number of unrelated donors were evaluated on an Adiva 120 Hematology Analyzer (Bayer, Canada) and standardized to a concentration of 300×10^9 platelets/L in HEPES buffered saline (HBS, 10 mM HEPES, 150 mM NaCl, pH 7.4).
Thereafter the samples were diluted and fixed with 1.0 mL 0.2% formolsaline (0.2% formaldehyde, 150 mM NaCl, pH 7.20) before analysis on a FACS Canto flow cytometer (BD, USA).
The effect of native HPG, free peptides, and peptide-conjugated HPG on activated platelets using modifications of the above assay systems was also examined. Platelets were treated with either 5 μL 4.2 mg/mL ristocetin (Chrono-Log, USA) or 100 U thrombin (T6884, Sigma-Aldrich, Canada) with 5 μL GPRP fibrin inhibitor (G5779, Sigma-Aldrich, Canada) dissolved in HBS. […] Controls included incubation with mouse IgG-FITC/IgG-PE (Beckman-Coulter, Canada) of the same isotype, and/or omitting the conjugate.

platelets = assay: Aggregometry, % aggregation on activation; type: cell-based, human; design: concentration or dose not given beside the values; details: ristocetin activation
Protocol: as §1
(§2) The effect of native HPG, free peptides, and peptide-conjugated HPG on activated platelets using modifications of the above assay systems was also examined. Platelets were treated with either 5 μL 4.2 mg/mL ristocetin (Chrono-Log, USA) or 100 U thrombin (T6884, Sigma-Aldrich, Canada) with 5 μL GPRP fibrin inhibitor (G5779, Sigma-Aldrich, Canada) dissolved in HBS. This was done to determine whether the peptides and the peptide-conjugates can mitigate vWf and thrombin mediated platelet effects. Controls included incubation with mouse IgG-FITC/IgG-PE (Beckman-Coulter, Canada) of the same isotype, and/or omitting the conjugate. As a result, native HPG, free peptides, and peptide-conjugated HPG neither did they increase vWf binding to resting platelets (Table 5) or they could trigger platelet activation.
The inhibition of platelet agglutination by vWf was observed both by light microscopy and lumiaggregometry (Table 5). No clumping was seen when resting platelets were incubated with free peptides, native HPG, or peptide-conjugated HPG.

[1] = test system: CD62/P-selectin on platelet surfaces; assay: Flow cytometry of surface CD62 expression on platelets; type: cell-based, human; details: for Surface CD62 Expression, Activated Platelets: thrombin-activated platelets
Protocol: as §1
(§3) 40 μL aliquots of HBS were mixed with 5 μL PRP and 5 μL of the material to be tested: 500 kDa native HPG; free peptides; or peptide-conjugated HPG at 1.0×10^−3 M to 1.0×10^−9 M. After 40 minutes of incubation at ambient temperature, 5 μL 0.01 mg/mL FITC-conjugated polyclonal sheep anti-human vWf IgG (Abcam, USA) or 5 μL of 2 mg/mL PE-conjugated monoclonal mouse anti-human CD62 IgG (Beckman-Coulter, Canada) was added and incubation was continued in the dark for 30 min. Thereafter the samples were diluted and fixed with 1.0 mL 0.2% formolsaline (0.2% formaldehyde, 150 mM NaCl, pH 7.20) before analysis on a FACS Canto flow cytometer (BD, USA).
as §2, with “activation. […]” for “activation.”

[2] = test system: vWf binding to resting platelets; assay: Flow cytometry of vWf binding to resting platelets; type: cell-based, human
Protocol: as §1, §3, §2

[3] = expressed as peptide concentration
[4] = inhibition of platelet-vWf binding, molar concentration of peptide or conjugate
[5] = inhibition of platelet-vWf binding, molar concentration of peptide or conjugate, read-out: Ic50

D-CGGGGGGRDKLGIYAHS [DR-pep] was tested, and the “Peptide Concentration at Ic50 (M)” value (GPIb-vWf interaction; [3]) was “No activity”, the “Ic50 (M)” value (GPIb-vWf interaction; [4]) was “No activity” and the “Aggregometry % Aggregation on Activation” value (platelets) was 78 ± 5%. The “Surface CD62 Expression, Resting Platelets” value [1] was 27 ± 18, the “Surface CD62 Expression, Activated Platelets” value [1] was 72 ± 3″ and the “vWf Binding, Resting Platelets” value [2] was 28 ± 3′.
With D-CGGGGGGRDKLGIYAHS [D-pep] the “Peptide Concentration at Ic50 (M)” value (GPIb-vWf interaction; [3]) was “No activity”, the “Ic50 (M)” value (GPIb-vWf interaction; [4]) was “No activity” and the “Aggregometry % Aggregation on Activation” value (platelets) was 80 ± 5%. The “Surface CD62 Expression, Resting Platelets” value [1] was 18 ± 2, the “Surface CD62 Expression, Activated Platelets” value [1] was 68 ± 10″ and the “vWf Binding, Resting Platelets” value [2] was 14 ± 8′.
In the case of “D10: HPG 500 kDa conjugate with about 10 D-peptides per HPG molecule ([dC]GGGGGG[dR][dD][dK][dL]G[dI][dY][dA][dH][dS]; also: coupled through vinyl sulfone to 500 kDa hyperbranched polyglycerol (HPG), about 10 peptides per HPG)”, the “Peptide Concentration at Ic50 (M)” value (GPIb-vWf interaction; [3]) is reported as “No activity”, the “Ic50 (M)” value (GPIb-vWf interaction; [4]) is reported as “No activity” and the “Aggregometry % Aggregation on Activation” value (platelets) is reported as 82 ± 5%. The “Surface CD62 Expression, Resting Platelets” value [1] was 14 ± 7, the “Surface CD62 Expression, Activated Platelets” value [1] was 70 ± 6″ and the “vWf Binding, Resting Platelets” value [2] was 24 ± 2′.
For “LR10: HPG conjugate with 10 L-retro peptides per HPG molecule (CGGGGGGRDKLGIYAHS; also: conjugated to HPG, 10 L-retro peptides per HPG molecule, site not given here)”, the IC50 (GPIb-vWf interaction; [5]) was 4.1 µM, the “Surface CD62 Expression, Resting Platelets” value [1] was 17 ± 2 and the “Surface CD62 Expression, Activated Platelets” value [1] was 72 ± 4″. The “vWf Binding, Resting Platelets” value [2] was 24 ± 2′.
In the case of “LR100: HPG 500 kDa conjugate with about 100 L-retro peptides per HPG molecule (CGGGGGGRDKLGIYAHS; also: conjugated to HPG 500 kDa, about 100 L-retro peptides per HPG molecule, site not given here)”, the “inhibition of vWf binding to platelets (in words)” value (GPIb-vWf interaction) is reported as “effective inhibitors”, the IC50 (GPIb-vWf interaction; [5]) is reported as 0.49 µM and the “Surface CD62 Expression, Resting Platelets” value [1] is reported as 18 ± 1. For the same substance, the “Surface CD62 Expression, Activated Platelets” value [1] was 73 ± 2″ and the “vWf Binding, Resting Platelets” value [2] was 22 ± 2′.
With “L10: HPG 500 kDa conjugate with about 10 L-peptides per HPG molecule (CGGGGGGSHAYIGLKDR; also: conjugated to HPG 500 kDa, about 10 L-peptides per HPG molecule, site not given here)” the “inhibition of vWf binding to platelets (in words)” value (GPIb-vWf interaction) was “effective inhibitors”, the IC50 (GPIb-vWf interaction; expressed as peptide concentration, read-out: Peptide Concentration at Ic50) was 67 µM and the IC50 (GPIb-vWf interaction; [5]) was 6.7 µM. For the same substance, the “Surface CD62 Expression, Resting Platelets” value [1] was 17 ± 1, the “Surface CD62 Expression, Activated Platelets” value [1] was 73 ± 5″ and the “vWf Binding, Resting Platelets” value [2] was 22 ± 5′.
In the case of CGGGGGGRDKLGIYAHS [LR-pep], the IC50 (GPIb-vWf interaction) is reported as 34 µM, the “Aggregometry % Aggregation on Activation” value (platelets) is reported as 5 ± 5% and the “Surface CD62 Expression, Resting Platelets” value [1] is reported as 19 ± 2. The “Surface CD62 Expression, Activated Platelets” value [1] was 70 ± 5″ and the “vWf Binding, Resting Platelets” value [2] was 25 ± 12′.
“D100: HPG 500 kDa conjugate with about 100 D-peptides per HPG molecule ([dC]GGGGGG[dR][dD][dK][dL]G[dI][dY][dA][dH][dS]; also: coupled through vinyl sulfone to 500 kDa hyperbranched polyglycerol (HPG), about 100 peptides per HPG)” was tested, and the “Peptide Concentration at Ic50 (M)” value (GPIb-vWf interaction; [3]) was “No activity”, the “Ic50 (M)” value (GPIb-vWf interaction; [4]) was “No activity” and the “Aggregometry % Aggregation on Activation” value (platelets) was 73 ± 5%. The “Surface CD62 Expression, Resting Platelets” value [1] was 18 ± 1, the “Surface CD62 Expression, Activated Platelets” value [1] was 72 ± 1″ and the “vWf Binding, Resting Platelets” value [2] was 26 ± 3′.
